Reference: publication PMC7613515, “Reading and erasing of the phosphonium analogue of trimethyllysine by epigenetic proteins” (Communications Chemistry, 2022)

What was measured:
[1] = tested on: KDM3AJmjC (T515–S1317); assay: MALDI-TOF demethylation assay, KDM3AJmjC; format: biochemical; conditions: 1 hr
From the text: To investigate whether H3KP9me3 can be demethylated by other human KDM4 subfamily members, recombinant KDM4AJmjC (M1–L359) and KDM4DJmjC (M1–L358) were produced in E. coli following an adaption of literature procedures[38],[39]. […] To test the ability of KDM3 and KDM7 subfamily representatives to demethylate H3KP9me2 or H3KP9me3, KDM3AJmjC (T515–S1317) and KDM7BJmjC (M37–N483) were produced using baculovirus/sf9 and E. coli expression systems, respectively[40],[41]. The synthesis of a histone H3 mimic peptide H3KP9me2 substrate is challenging as the tri-alkylated phosphine group is susceptible to oxidation during synthesis of the protected amino acid and during SPPS requiring oxygen-free conditions. Thus, to investigate if KDM3AJmjC or KDM7BJmjC can catalyse demethylation of H3KP9me2, an appropriate H3KP9me2 substrate was prepared in situ from H3KP9me3 using KDM4EJmjC (2.0 µM), in the presence of KDM3AJmjC (2.0 µM) or KDM7BJmjC (2.0 µM).
A Bruker Daltonics MALDI-TOF/TOF AutoflexSpeed machine and Bruker MTP 384 target plates (polished steel BC, Part: 8280781) were used. The machine was controlled using Flex control (v. 3.4 build 135.10) and Compass for flex series (v. 1.4) software. Measurements were in the positive ion mode with the reflectron mode enabled. […] Samples were then analysed by MALDI-TOF. […]

[2] = biological target: T1, KDM4EJmjC (M1–Q337) (Homo sapiens, UniProt B2RXH2); assay: NMR demethylation assay (1H, 31P), KDM4EJmjC; format: biochemical; conditions: KDM4EJmjC 50 µM
T1 construct: We chose human KDM4EJmjC (M1–Q337); made in house
T1 sequence (B2RXH2 1-337): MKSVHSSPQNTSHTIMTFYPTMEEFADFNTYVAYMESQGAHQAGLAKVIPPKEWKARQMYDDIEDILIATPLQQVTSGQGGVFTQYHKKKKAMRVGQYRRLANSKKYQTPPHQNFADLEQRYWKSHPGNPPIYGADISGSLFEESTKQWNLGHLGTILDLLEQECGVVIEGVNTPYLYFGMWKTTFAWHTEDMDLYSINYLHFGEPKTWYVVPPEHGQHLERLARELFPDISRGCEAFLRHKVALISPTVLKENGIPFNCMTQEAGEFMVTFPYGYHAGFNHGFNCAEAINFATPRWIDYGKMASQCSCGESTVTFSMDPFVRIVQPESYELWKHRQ
Procedure: Incubations of H3_1-15KP9me3 with KDM4EJmjC were performed in Eppendorf tubes (1.5 mL). Conditions used for ^1H and ^31P NMR time-courses: H3_1-15KP9me3 (250 µM) was incubated with KDM4EJmjC (50 µM), sodium ascorbate (1.00 mM), 2OG (500 µM), and Fe(NH4)2(SO4)2 (100 µM) in HEPES-d18 buffer (50 mM, pH 7.5) in D2O ( > 95% ^2H). Reactions (160 µL total volume) were quenched by addition of HCl (1 M, 10 equivalents) after the indicated time. The samples were centrifuged (1 min, 14,500 rpm) and the supernatant transferred to an NMR tube (3 mm, Norell). For characterisation of the products from the incubation of H3_1-15KP9me3 with KDM4EJmjC the following conditions were used: Peptide H3_1-15KP9me3 (500 µM) was incubated with sodium ascorbate (1.00 mM) 2-oxoglutarate (1.00 mM), Fe(NH4)2(SO4)2 (100 µM), and KDM4EJmjC (50.0 µM), in HEPES-d18 buffer (50 mM, pH 7.5) in D2O (>95% ^2H) for 1 hour. Reactions were quenched by addition of HCl (1 M, 10 equivalents), or by heating (95 °C, 10 min). Precipitated proteins were removed by centrifugation (1 min, 14,500 rpm) and the supernatant transferred to an NMR tube (3 mm, Norell). Spectra were measured using a Bruker 600 MHz machine and analysed using MestReNova 14.1 (MestReLabs, Spain; www.mestrelab.com) and Topspin 3.6.1 (Bruker, Germany; www.bruker.com). […]

Substance: ARTKQTAR(KPme3)STGGKA [H3KP9me3, histone H3 residues 1–15 with trimethylphosphonium lysine analogue at position 9]
- demethylation in combination with KDM4EJmjC ([1]; KDM3AJmjC 2.0 µM plus KDM4EJmjC 2.0 µM, peptide 5.0 µM): produced H3KP9me2 (due to KDM4EJmjC catalysis), but did not result in masses consistent with H3KP9me1 or H3KP9
- demethylation ([1]; KDM3AJmjC 2.0 µM, H3KP9me2 prepared in situ with KDM4EJmjC): do not catalyse demethylation of H3K9me3 (as anticipated) or H3KP9me3
- demethylation ([2]; 1H and 31P NMR, H3KP9me3 250 or 500 µM, HEPES-d18 pH 7.5 in D2O): the reaction proceeded to give signals corresponding to H3KP9me2 and H3KP9me2O
- demethylation with 2OG turnover to succinate ([2]; NMR time-course, H3KP9me3 250 µM): confirmed demethylation and conversion of 2OG to succinate
